Reference: publication PMC12152147, “DDB1 engagement defines the selectivity of S656 analogs for cyclin K degradation over CDK inhibition” (EMBO Reports, 2025)
Where “and” joins values, the source holds several entries; their conditions need not be identical. Identical values can stand only once. Like-named read-outs stand apart in the source and are kept apart here.

Key:
[1] = system: OCI-AML5 cells; assay: Dose-response proliferative assay in OCI-AML5 (4 days, CellTiterGlo); assay type: cell-based, H. sapiens
In short: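 Viability assessed after 4 days of compound exposure at 37 °C, 5% CO2. Compounds tested as 8 dilutions (1:4, 10 μM to 0.5 nM) on 300 OCI-AML5 cells/well grown in αMEM with 10% heat-inactivated FBS and 10 ng/mL GM-CSF.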

[2] = biological target: T1, CDK9/CyclinT (Homo sapiens, UniProt P50750); assay: CDK9/CyclinT in vitro kinase activity, single concentration 1 μM; assay type: biochemical
T1 construct: purchased BPS Bioscience 79628
T1 sequence (P50750 whole entry): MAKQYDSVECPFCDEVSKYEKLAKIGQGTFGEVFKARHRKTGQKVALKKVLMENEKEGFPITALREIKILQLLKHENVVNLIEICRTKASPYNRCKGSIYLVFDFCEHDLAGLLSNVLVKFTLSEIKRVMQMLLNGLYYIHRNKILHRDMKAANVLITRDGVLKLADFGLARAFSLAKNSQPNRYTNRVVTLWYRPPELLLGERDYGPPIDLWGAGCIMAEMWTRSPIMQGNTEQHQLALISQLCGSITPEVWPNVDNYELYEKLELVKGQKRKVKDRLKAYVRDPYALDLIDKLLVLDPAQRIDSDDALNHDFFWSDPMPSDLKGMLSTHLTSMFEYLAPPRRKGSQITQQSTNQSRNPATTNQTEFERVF
T1 sequence (O60563 whole entry partner): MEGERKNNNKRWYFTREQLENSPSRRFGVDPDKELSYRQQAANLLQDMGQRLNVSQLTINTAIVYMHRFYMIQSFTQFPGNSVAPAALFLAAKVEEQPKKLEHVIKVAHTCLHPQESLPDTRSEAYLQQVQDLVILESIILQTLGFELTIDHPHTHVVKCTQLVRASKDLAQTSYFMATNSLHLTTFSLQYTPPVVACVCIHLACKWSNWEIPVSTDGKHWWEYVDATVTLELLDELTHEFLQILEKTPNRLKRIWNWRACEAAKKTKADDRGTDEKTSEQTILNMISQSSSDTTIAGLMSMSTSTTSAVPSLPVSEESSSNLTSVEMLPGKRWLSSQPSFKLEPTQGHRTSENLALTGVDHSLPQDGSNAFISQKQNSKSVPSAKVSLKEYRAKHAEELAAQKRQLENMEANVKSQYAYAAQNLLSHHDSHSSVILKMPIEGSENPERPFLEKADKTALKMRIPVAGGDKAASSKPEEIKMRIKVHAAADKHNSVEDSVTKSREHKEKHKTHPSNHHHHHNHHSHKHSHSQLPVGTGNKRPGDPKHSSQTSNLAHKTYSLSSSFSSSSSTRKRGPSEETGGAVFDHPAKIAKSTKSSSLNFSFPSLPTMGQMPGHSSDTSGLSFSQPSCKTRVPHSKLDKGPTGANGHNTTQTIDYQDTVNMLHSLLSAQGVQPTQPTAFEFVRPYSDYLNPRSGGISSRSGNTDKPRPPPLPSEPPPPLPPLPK
Procedure: (§1) Kinase activity was assessed using the kinase assay kits from BPS Bioscience for CDK1, CDK9 and CDK12 with Kinase Glo MAX in duplicates. Compounds were tested at a single concentration of 1 μM for CDK1 and CDK9 activity, and in a dilution ranging from 0.64 nM to 50 μM for CDK12 activity. Chemiluminescence was read using the Neo Synergy BioTek plate reader.

[3] = biological target: T2, CDK1 (Homo sapiens, UniProt P06493); assay: CDK1 in vitro kinase activity, single concentration 1 μM; assay type: biochemical
T2 construct: purchased BPS Bioscience 79597
T2 sequence (P06493 whole entry): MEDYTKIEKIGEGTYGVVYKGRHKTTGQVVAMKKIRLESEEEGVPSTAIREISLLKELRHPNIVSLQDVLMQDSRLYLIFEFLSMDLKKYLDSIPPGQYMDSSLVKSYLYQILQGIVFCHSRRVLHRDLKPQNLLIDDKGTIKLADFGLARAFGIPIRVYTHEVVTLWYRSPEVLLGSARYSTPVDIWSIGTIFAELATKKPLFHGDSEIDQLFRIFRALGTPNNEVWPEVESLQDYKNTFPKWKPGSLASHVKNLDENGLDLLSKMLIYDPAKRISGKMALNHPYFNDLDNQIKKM
T2 sequence (P14635 whole entry partner): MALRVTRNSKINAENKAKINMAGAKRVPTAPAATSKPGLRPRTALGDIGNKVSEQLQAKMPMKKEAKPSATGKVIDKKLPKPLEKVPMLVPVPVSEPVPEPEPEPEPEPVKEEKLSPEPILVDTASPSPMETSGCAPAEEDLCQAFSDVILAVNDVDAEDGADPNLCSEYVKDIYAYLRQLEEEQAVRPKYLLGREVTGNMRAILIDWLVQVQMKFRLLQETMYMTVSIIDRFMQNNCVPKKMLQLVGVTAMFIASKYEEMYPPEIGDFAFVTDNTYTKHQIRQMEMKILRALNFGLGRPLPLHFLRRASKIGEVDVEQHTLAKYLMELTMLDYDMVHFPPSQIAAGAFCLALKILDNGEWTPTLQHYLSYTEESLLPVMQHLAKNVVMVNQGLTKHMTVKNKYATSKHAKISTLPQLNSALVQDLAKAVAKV
Procedure: as §1

[4] = biological target: T3, CDK12/Cyclin K (Homo sapiens, UniProt Q9NYV4); assay: CDK12/CyclinK in vitro kinase assay (BPS kit, Kinase Glo MAX); assay type: biochemical; details: for in vitro inhibition of CDK12/Cyclin K activity: in % (unit assumed)
T3 construct: purchased BPS Bioscience 78298
T3 sequence (Q9NYV4 whole entry): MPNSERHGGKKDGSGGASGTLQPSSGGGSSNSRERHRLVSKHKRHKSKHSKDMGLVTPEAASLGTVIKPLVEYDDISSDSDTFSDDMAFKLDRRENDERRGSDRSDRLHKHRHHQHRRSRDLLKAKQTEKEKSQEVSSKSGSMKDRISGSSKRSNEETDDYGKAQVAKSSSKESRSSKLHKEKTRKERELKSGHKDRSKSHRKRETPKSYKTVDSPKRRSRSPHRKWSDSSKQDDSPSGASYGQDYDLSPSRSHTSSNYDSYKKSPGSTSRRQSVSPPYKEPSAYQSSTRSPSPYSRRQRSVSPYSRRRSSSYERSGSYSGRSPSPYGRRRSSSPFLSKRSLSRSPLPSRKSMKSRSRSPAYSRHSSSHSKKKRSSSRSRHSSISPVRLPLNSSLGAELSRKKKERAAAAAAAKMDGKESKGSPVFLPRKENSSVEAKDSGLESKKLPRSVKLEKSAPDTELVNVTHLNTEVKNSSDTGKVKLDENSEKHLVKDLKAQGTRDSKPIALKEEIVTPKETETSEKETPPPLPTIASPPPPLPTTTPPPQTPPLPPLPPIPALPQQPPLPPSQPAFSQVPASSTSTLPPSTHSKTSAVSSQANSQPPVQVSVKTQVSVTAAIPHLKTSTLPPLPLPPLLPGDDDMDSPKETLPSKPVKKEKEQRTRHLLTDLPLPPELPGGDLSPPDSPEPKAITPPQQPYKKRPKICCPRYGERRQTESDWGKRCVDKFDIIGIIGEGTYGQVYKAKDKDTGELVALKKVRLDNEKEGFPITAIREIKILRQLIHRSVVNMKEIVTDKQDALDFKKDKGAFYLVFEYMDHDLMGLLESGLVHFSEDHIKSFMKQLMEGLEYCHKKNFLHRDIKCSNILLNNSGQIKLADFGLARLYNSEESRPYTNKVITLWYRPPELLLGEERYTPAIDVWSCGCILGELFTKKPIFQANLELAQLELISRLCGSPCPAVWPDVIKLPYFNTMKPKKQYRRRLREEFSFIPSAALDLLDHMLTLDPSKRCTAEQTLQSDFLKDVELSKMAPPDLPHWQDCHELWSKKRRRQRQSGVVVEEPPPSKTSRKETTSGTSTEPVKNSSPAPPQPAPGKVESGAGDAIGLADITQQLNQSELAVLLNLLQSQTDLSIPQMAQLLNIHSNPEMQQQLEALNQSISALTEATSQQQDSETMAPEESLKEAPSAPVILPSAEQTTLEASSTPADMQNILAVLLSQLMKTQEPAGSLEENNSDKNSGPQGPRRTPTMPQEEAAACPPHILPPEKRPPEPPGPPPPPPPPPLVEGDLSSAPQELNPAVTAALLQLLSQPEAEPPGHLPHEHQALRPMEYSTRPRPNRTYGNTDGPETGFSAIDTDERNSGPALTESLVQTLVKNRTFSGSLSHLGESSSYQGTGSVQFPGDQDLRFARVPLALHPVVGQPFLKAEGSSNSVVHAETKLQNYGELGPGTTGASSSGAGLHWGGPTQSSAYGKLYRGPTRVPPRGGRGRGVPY
T3 sequence (O75909 whole entry partner): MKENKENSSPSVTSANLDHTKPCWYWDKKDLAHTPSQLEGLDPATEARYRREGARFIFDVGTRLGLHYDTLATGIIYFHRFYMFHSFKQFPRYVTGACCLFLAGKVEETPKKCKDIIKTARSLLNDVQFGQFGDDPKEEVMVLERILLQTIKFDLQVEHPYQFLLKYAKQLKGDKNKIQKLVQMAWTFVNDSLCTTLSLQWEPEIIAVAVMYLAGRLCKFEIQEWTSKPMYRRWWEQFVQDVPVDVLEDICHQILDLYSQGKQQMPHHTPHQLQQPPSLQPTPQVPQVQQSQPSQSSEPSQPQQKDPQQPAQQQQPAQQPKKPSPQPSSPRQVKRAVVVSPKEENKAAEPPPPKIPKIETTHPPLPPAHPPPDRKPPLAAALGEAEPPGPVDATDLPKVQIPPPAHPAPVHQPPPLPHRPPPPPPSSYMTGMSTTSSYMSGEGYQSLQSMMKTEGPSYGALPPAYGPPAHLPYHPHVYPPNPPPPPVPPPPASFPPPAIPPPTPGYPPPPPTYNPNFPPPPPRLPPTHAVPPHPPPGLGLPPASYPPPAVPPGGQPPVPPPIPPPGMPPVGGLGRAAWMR
Procedure: as §1

[5] = system: OCI-AML5 cells expressing shRNAs targeting CDK1, 2, 4, 7, 9, cyclin K; assay: Dose response in OCI-AML5 expressing shRNAs targeting CDK1, 2, 4, 7, 9, cyclin K or control; assay type: cell-based, H. sapiens
[6] = system: cyclin KeGFP; assay: Cyclin KeGFP reporter system (eGFP/mCherry MFI by flow cytometry);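 as to % degradation cyclin K-eGFP: 10 μM compound for 3 h relative to DMSO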; assay type: cell-based, H. sapiens
In short: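 Degradation read as eGFP-to-mCherry MFI ratio relative to DMSO controls, from flow cytometry of the selected G7 clone of OCI-AML5 cells transduced with the cyclin KeGFP reporter.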

[7] = system: OCI-AML5 cells expressing shRNA targeting CUL4A or CUL4B; assay: Dose response in OCI-AML5 expressing shRNAs targeting CUL4A, CUL4B or control; assay type: cell-based, H. sapiens
[8] = system: primary AML specimens; assay: Dose-response assays in primary AML specimens (6 days, CellTiterGlo); assay type: cell-based, human; details: Homo sapiens, 144 h
In short: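 Primary AML cells in IMDM/15% BIT with SCF, FLT3L, IL3, G-CSF, SR1 and UM729 were exposed to 8-point 1:4 dilutions (10 μM to 0.5 nM) for 6 days. Viability came from CellTiterGlo luminescence, with % inhibition versus DMSO (0.1%) fitted by nonlinear regression.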

IC50 ([1]; Homo sapiens, OCI-AML-5, 96 h, 4 days incubation, read-out: IC50 OCI-AML5): 743 nM
IC50 ([1]; Homo sapiens, OCI-AML-5, 96 h, OCI-AML5, regular media, 4 days, read-out: S656 IC50, Media): 949 nM
IC50 ([1]; OCI-AML5, regular media, 4 days, read-out: S656 IC50, Media): 675 nM and 712 nM
in vitro inhibitory activity for CDK9 ([2]; 1 μM): displays in vitro inhibitory activity
inhibition at 1 µM ([2]; single concentration 1 μM): 59%
in vitro inhibitory activity for CDK1 ([3]; 1 μM): displays in vitro inhibitory activity
inhibition at 1 µM ([3]; single concentration 1 μM): 70%
in vitro inhibition of CDK12/Cyclin K activity ([4]; Log10 (uM) 0.30103): 29.97 and 30.05 and 16.95
in vitro inhibition of CDK12/Cyclin K activity ([4]; Log10 (uM) 1): 64.47 and 62.45 and 59.28
in vitro inhibition of CDK12/Cyclin K activity ([4]; Log10 (uM) 1.69897): 82.67 and 75.84 and 109.95
IC50 ([4]; read-out: IC50, in vitro inhibition of CDK12/Cyclin K activity): 6000 nM
IC50 ([5]; Homo sapiens, OCI-AML-5, 96 h, OCI-AML5, 4 days, read-out: IC50, sh CDK1): 499 nM
IC50 ([5]; Homo sapiens, OCI-AML-5, 96 h, OCI-AML5, 4 days, read-out: IC50, sh CDK2): 842 nM
IC50 ([5]; Homo sapiens, OCI-AML-5, 96 h, OCI-AML5, 4 days, read-out: IC50, sh CDK4): 577 nM
IC50 ([5]; Homo sapiens, OCI-AML-5, 96 h, OCI-AML5, 4 days, read-out: IC50, sh CDK7): 791 nM
IC50 ([5]; Homo sapiens, OCI-AML-5, 96 h, OCI-AML5, 4 days, read-out: IC50, sh CDK9): 548 nM
IC50 ([5]; Homo sapiens, OCI-AML-5, 96 h, OCI-AML5, 4 days, read-out: IC50, sh Cyclin K): 175 nM
IC50 ([5]; Homo sapiens, OCI-AML-5, 96 h, OCI-AML5, 4 days, read-out: IC50, sh ctrl): 756 nM
IC50 ([5]; Homo sapiens, OCI-AML-5, OCI-AML5 expressing shRNA CCNK (cyclin K), read-out: IC50 shRNA CCNK): 194 nM
IC50 ([5]; Homo sapiens, OCI-AML-5, OCI-AML5 expressing shRNA CDK1, read-out: IC50 shRNA CDK1): 478 nM
IC50 ([5]; Homo sapiens, OCI-AML-5, OCI-AML5 expressing shRNA CDK2, read-out: IC50 shRNA CDK2): 794 nM
IC50 ([5]; Homo sapiens, OCI-AML-5, OCI-AML5 expressing shRNA CDK4, read-out: IC50 shRNA CDK4): 690 nM
IC50 ([5]; Homo sapiens, OCI-AML-5, OCI-AML5 expressing shRNA CDK9, read-out: IC50 shRNA CDK9): 548 nM
IC50 ([5]; OCI-AML5, 4 days, read-out: IC50, sh CDK1): 480 nM
IC50 ([5]; OCI-AML5, 4 days, read-out: IC50, sh CDK2): 928 nM and 685 nM
IC50 ([5]; OCI-AML5, 4 days, read-out: IC50, sh CDK4): 744 nM and 662 nM
IC50 ([5]; OCI-AML5, 4 days, read-out: IC50, sh CDK7): 774 nM and 662 nM
IC50 ([5]; OCI-AML5, 4 days, read-out: IC50, sh CDK9): 589 nM and 628 nM
IC50 ([5]; OCI-AML5, 4 days, read-out: IC50, sh Cyclin K): 288 nM and 186 nM
IC50 ([5]; OCI-AML5, 4 days, read-out: IC50, sh ctrl): 713 nM and 664 nM
SMILES: CN(C)c1ccc(CC(=O)Nc2ncc(SCc3cccnc3)s2)cc1 [S656]
Class ([5]; class from shRNA IC50 profile and cyclin K-eGFP degradation): mixed 1-2
% cyclin KeGFP degradation ([6]; 3 h, 10 μM, compared to DMSO, OCI-AML5 G7 clone): 75%
MFI of cyclin KeGFP over mCherry ([6]; OCI-AML5 G7 clone, 3 h, 10 μM, normalized to DMSO (=100)): 23.8 and 23.9 and 23.3 and 23.2 and 22.8
% degradation cyclin K-eGFP ([6]; cyclin K-eGFP reporter): 75%
potency upon CUL4A or CUL4B downregulation (for SNS-032, THZ531 also DDB1 depletion) ([7]; OCI-AML5, 4 days): impaired
Ratio shCUL4A/shCTRL ([7]; ratio of IC50 in shCUL4A vs shCTRL OCI-AML5 cells): 2.79
IC50 ([8]; primary AML specimen 03H109, 6 days, read-out: IC50): 761 nM
IC50 ([8]; primary AML specimen 04H055, 6 days, read-out: IC50): 1040 nM
IC50 ([8]; primary AML specimen 04H096, 6 days, read-out: IC50): 846 nM
IC50 ([8]; primary AML specimen 04H138, 6 days, read-out: IC50): 1990 nM
IC50 ([8]; primary AML specimen 05H113, 6 days, read-out: IC50): 897 nM
IC50 ([8]; primary AML specimen 05H149, 6 days, read-out: IC50): 1380 nM
IC50 ([8]; primary AML specimen 05H193, 6 days, read-out: IC50): 999 nM
IC50 ([8]; primary AML specimen 06H088, 6 days, read-out: IC50): 1260 nM
IC50 ([8]; primary AML specimen 06H117, 6 days, read-out: IC50): 983 nM
IC50 ([8]; primary AML specimen 06H151, 6 days, read-out: IC50): 683 nM
IC50 ([8]; primary AML specimen 07H003, 6 days, read-out: IC50): 2190 nM
IC50 ([8]; primary AML specimen 07H131, 6 days, read-out: IC50): 2680 nM
IC50 ([8]; primary AML specimen 07H144, 6 days, read-out: IC50): 999 nM
IC50 ([8]; primary AML specimen 07H155, 6 days, read-out: IC50): 2440 nM
IC50 ([8]; primary AML specimen 08H018, 6 days, read-out: IC50): 2210 nM
IC50 ([8]; primary AML specimen 08H021, 6 days, read-out: IC50): 1010 nM
IC50 ([8]; primary AML specimen 08H056, 6 days, read-out: IC50): 2130 nM
IC50 ([8]; primary AML specimen 08H063, 6 days, read-out: IC50): 2380 nM
IC50 ([8]; primary AML specimen 08H085, 6 days, read-out: IC50): 1010 nM
IC50 ([8]; primary AML specimen 08H108, 6 days, read-out: IC50): 826 nM
IC50 ([8]; primary AML specimen 08H118, 6 days, read-out: IC50): 887 nM
IC50 ([8]; primary AML specimen 09H016, 6 days, read-out: IC50): 974 nM
IC50 ([8]; primary AML specimen 09H070, 6 days, read-out: IC50): 2240 nM
IC50 ([8]; primary AML specimen 10H014, 6 days, read-out: IC50): 852 nM
IC50 ([8]; primary AML specimen 10H046, 6 days, read-out: IC50): 972 nM
IC50 ([8]; primary AML specimen 10H107, 6 days, read-out: IC50): 1560 nM
IC50 ([8]; primary AML specimen 10H127, 6 days, read-out: IC50): 1440 nM
IC50 ([8]; primary AML specimen 10H161, 6 days, read-out: IC50): 1170 nM
IC50 ([8]; primary AML specimen 10H174, 6 days, read-out: IC50): 887 nM
IC50 ([8]; primary AML specimen 11H008, 6 days, read-out: IC50): 1450 nM
IC50 ([8]; primary AML specimen 11H019, 6 days, read-out: IC50): 1090 nM
IC50 ([8]; primary AML specimen 11H170, 6 days, read-out: IC50): 2330 nM
IC50 ([8]; primary AML specimen 11H217, 6 days, read-out: IC50): 1240 nM
IC50 ([8]; primary AML specimen 11H232, 6 days, read-out: IC50): 1130 nM
IC50 ([8]; primary AML specimen 12H033, 6 days, read-out: IC50): 2380 nM
IC50 ([8]; primary AML specimen 12H055, 6 days, read-out: IC50): 1390 nM
IC50 ([8]; primary AML specimen 12H148, 6 days, read-out: IC50): 1480 nM
IC50 ([8]; primary AML specimen 13H053, 6 days, read-out: IC50): 2190 nM
IC50 ([8]; primary AML specimen 15H045, 6 days, read-out: IC50): 680 nM
IC50 ([8]; primary AML specimen 17H065, 6 days, read-out: IC50): 1550 nM
IC50 ([8]; read-out: median IC50 in a panel of 40 primary AMLs, 6 days): 1210 nM
